What was measured:
Format in all cases: in vivo
Kochia (Kochia scoparia) [1] = test: Test A preemergence
Procedure, shortened: (§1)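 In a loam soil and sand blend, planted seeds got a preemergence directed soil spray, and young plants at the one- to two-leaf stage, 2–10 cm high, got a postemergence application; ~10 d greenhouse hold; injury rated visually, 0 = none, 100 = complete control.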

[2] = tested on: barnyardgrass (Echinochloa crus-galli); test: Test A preemergence
Procedure, shortened: as §1

[3] = tested on: giant foxtail (Setaria faberii); test: Test A preemergence
Procedure, shortened: as §1

[4] = tested on: pigweed (Amaranthus retroflexus); test: Test A preemergence; conditions: Preemergence
[5] = tested on: ragweed (common ragweed, Ambrosia elatior); test: Test A preemergence; conditions: Preemergence
Procedure, shortened: as §1

[6] = tested on: ryegrass, Italian (Italian ryegrass, Lolium multiflorum); test: Test A preemergence; conditions: Preemergence
Procedure, shortened: as §1

[7] = tested on: Galium (catchweed bedstraw, Galium aparine); test: Test A postemergence
Procedure, shortened: as §1

Kochia (Kochia scoparia) [8] = test: Test A postemergence
Procedure, shortened: as §1

[9] = tested on: barnyardgrass (Echinochloa crus-galli); test: Test A postemergence; conditions: postemergence
Procedure, shortened: as §1

[10] = tested on: blackgrass (Alopecurus myosuroides); test: Test A postemergence; conditions: postemergence
Procedure, shortened: as §1

corn (Zea mays) = test: Test A postemergence; conditions: postemergence
Procedure, shortened: as §1

[11] = tested on: giant foxtail (Setaria faberii); test: Test A postemergence
Procedure, shortened: as §1

[12] = tested on: pigweed (Amaranthus retroflexus); test: Test A postemergence
Procedure, shortened: as §1

[13] = tested on: ragweed (common ragweed, Ambrosia elatior); test: Test A postemergence
Procedure, shortened: as §1

[14] = tested on: ryegrass, Italian (Italian ryegrass, Lolium multiflorum); test: Test A postemergence
Procedure, shortened: as §1

[15] = tested on: wheat (Triticum aestivum); test: Test A postemergence
Procedure, shortened: as §1

[16] = tested on: barnyardgrass (Echinochloa crus-galli); test: Test B flooded paddy test; conditions: Flood, 250 g ai/ha; 0 to 100 scale where 0 is no effect and 100 is complete control; 13 to 15 d
Procedure, shortened: (§2)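 Greenhouse paddy pots with 2-leaf stage plants received compound by direct addition to floodwater 3 cm deep, kept at that level. Scored visually at 13–15 d versus controls (0 no effect; 100 complete control).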

[17] = tested on: ducksalad (Heteranthera limosa); test: Test B flooded paddy test; conditions: Flood, 250 g ai/ha; 0 to 100 scale where 0 is no effect and 100 is complete control; 13 to 15 d
Procedure, shortened: as §2

rice (Oryra sativa) = test: Test B flooded paddy test; conditions: Flood, 250 g ai/ha; 0 to 100 scale where 0 is no effect and 100 is complete control; 13 to 15 d
Procedure, shortened: as §2

[18] = tested on: sedge, umbrella (small-flower umbrella sedge, Cyperus difformis); test: Test B flooded paddy test; conditions: Flood, 250 g ai/ha; 0 to 100 scale where 0 is no effect and 100 is complete control; 13 to 15 d
Procedure, shortened: as §2

[19] = 125 g ai/ha, preemergence, 0 to 100 scale (0 no effect, 100 complete control)
[20] = Preemergence, 500 g ai/ha, visual injury approx. 10 d
[21] = 125 g ai/ha, visual injury after approximately 10 d, 0 to 100 scale where 0 is no effect and 100 is complete control
[22] = 500 g ai/ha, visual injury approx. 10 d
[23] = 125 g ai/ha, postemergence, visual injury rating on 0 to 100 scale (0 no effect, 100 complete control), approx. 10 d
[24] = Postemergence, 500 g ai/ha, 0 to 100 scale where 0 is no effect and 100 is complete control
[25] = 125 g ai/ha, visual injury rating on 0 to 100 scale (0 no effect, 100 complete control), approx. 10 d
[26] = 500 g ai/ha, 0 to 100 scale, 0 no effect, 100 complete control

SMILES: CN1CC(c2ccc(C(F)(F)F)cc2F)C(C(=O)Nc2ccc(F)cc2F)C1=O (stereo not drawn) [Compound 474]
- Plant response rating, Kochia (Kochia (Kochia scoparia) [1]; [19]): 60
- Kochia plant response rating (0 to 100 scale, 0 is no effect, 100 is complete control) (Kochia (Kochia scoparia) [1]; [20]): 70
- Plant response rating, Barnyardgrass [2, 19]: 90
- Barnyardgrass plant response rating (0 to 100 scale, 0 is no effect, 100 is complete control) [2, 20]: 90
- Plant response rating, Foxtail, Giant [3, 19]: 90
- Foxtail, Giant plant response rating (0 to 100 scale, 0 is no effect, 100 is complete control) [3, 20]: 90
- Plant response rating, Pigweed [4, 21]: 30
- Pigweed plant response rating (0 to 100 scale, 0 is no effect, 100 is complete control) [4, 22]: 90
- Plant response rating, Ragweed [5, 21]: 0
- Ragweed plant response rating (0 to 100 scale, 0 is no effect, 100 is complete control) [5, 22]: 20
- Plant response rating, Ryegrass, Italian [6, 21]: 0
- Ryegrass, Italian plant response rating (0 to 100 scale, 0 is no effect, 100 is complete control) [6, 22]: 50
- Galium plant response rating [7, 23]: 40
- Plant response rating, Galium [7, 24]: 50
- Kochia plant response rating (Kochia (Kochia scoparia) [8]; [23]): 50
- Plant response rating, Kochia (Kochia (Kochia scoparia) [8]; [24]): 60
- Barnyardgrass plant response rating [9, 25]: 90
- Plant response rating, Barnyardgrass [9, 26]: 90
- Blackgrass plant response rating [10, 25]: 30
- Plant response rating, Blackgrass [10, 26]: 50
- Corn plant response rating (corn (Zea mays); [25]): 0
- Plant response rating, Corn (corn (Zea mays); [26]): 20
- Foxtail, Giant plant response rating [11, 23]: 90
- Plant response rating, Foxtail, Giant [11, 24]: 90
- Pigweed plant response rating [12, 23]: 30
- Plant response rating, Pigweed [12, 24]: 30
- Ragweed plant response rating [13, 23]: 0
- Plant response rating, Ragweed [13, 24]: 0
- Ryegrass, Italian plant response rating [14, 23]: 20
- Plant response rating, Ryegrass, Italian [14, 24]: 50
- Wheat plant response rating [15, 23]: 0
- Plant response rating, Wheat [15, 24]: 30
- Plant response rating, Barnyardgrass [16]: 30
- Plant response rating, Ducksalad [17]: 80
- Plant response rating, Rice (rice (Oryra sativa)): 0
- Plant response rating, Sedge, Umbrella [18]: 0
